Results taken from the supplement of paper PMC10290057.
Structures can show the parent of a compound that is named as a salt.

Test system: HCT116
Assay: efficacy (fitted maximal change in viability relative to DMSO control); higher = less cytotoxic (negative = loss of viability)
Conditions: 48 h
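Also: Luminescence-based viability readout, five doses per compound, normalized against on-plate DMSO and empty-well controls, followed by dose-response curve fitting for every drug.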

Compound	efficacy
Cc1cc(O)c2c(c1)C(=O)c1cc(O)cc(O)c1C2=O [Emodin]	-31.9%
CCOC(=O)[C@H](CCc1ccccc1)N[C@@H](C)C(=O)N1CCC[C@H]1C(=O)O [Enalapril maleate]	-15.7%
CC/C(=C(/c1ccc(O)cc1)c1ccc(OCCNC)cc1)c1ccccc1 [Endoxifen]	-71.8%
CC1(C)[C@@H](O)CC[C@@]2(C)[C@H]1CC[C@]3(C)[C@@H]2C(=O)\C=C/4[C@@H]5C[C@](C)(CC[C@]5(C)CC[C@@]34C)C(O)=O [Enoxolone]	-35.4%
CNC(=O)c1ccc(N2C(=S)N(c3ccc(C#N)c(C(F)(F)F)c3)C(=O)C2(C)C)cc1F [Enzalutamide]	-37%
N[S+](=O)([O-])NCCNc1nonc1/C(=N/O)Nc1ccc(F)c(Br)c1 [Epacadostat]	-25.2%
CNC[C@H](O)c1ccc(O)c(O)c1 [Epinephrine]	-17.8%
COC(=O)[C@@H]1CC/2=C/C(=O)CC[C@]2(C)[C@@]34O[C@@H]3C[C@@]5(C)[C@@H](CC[C@@]56CCC(=O)O6)[C@H]14 [Eplerenone]	-6.15%
C/C(=C\c1csc(C)n1)[C@@H]1C[C@@H]2O[C@@H]2CCC[C@H](C)[C@H](O)[C@@H](C)C(=O)C(C)(C)[C@@H](O)CC(=O)O1 [Epothilone A]	-68.2%
O=C(O)CSCC(=O)NC1CCSC1=O (stereo unspecified) [Erdosteine]	9.04%
CC[C@H]1OC(=O)[C@H](C)[C@@H](O[C@H]2C[C@@](C)(OC)[C@@H](O)[C@H](C)O2)[C@H](C)[C@@H](O[C@@H]2O[C@H](C)C[C@H](N(C)C)[C@H]2O)[C@](C)(O)C[C@@H](C)C(=O)[C@H](C)[C@@H](O)[C@]1(C)O [Erythromycin]	23%
C[C@]12CC[C@@H]3c4ccc(O)cc4CC[C@H]3[C@@H]1[C@@H](O)[C@@H](O)[C@@H]2O [Estetrol]	-16.1%
C[C@]12CC[C@@H]3c4ccc(O)cc4CC[C@H]3[C@@H]1C[C@@H](O)[C@@H]2O [Estriol]	-52.3%
C[C@]12CCC3c4ccc(O)cc4CCC3C1CCC2=O (stereo partly specified) [Estrone]	-24.4%
C#C[C@]1(O)CC[C@H]2[C@@H]3CCc4cc(O)ccc4[C@H]3CC[C@@]21C [Ethinylestradiol]	-54.2%
CCC1(C)CC(=O)NC1=O (stereo unspecified) [Ethosuximide]	-10.2%
Cc1ccc(-c2ncc(Cl)cc2-c2ccc([S+](C)(=O)[O-])cc2)cn1 [Etoricoxib]	-16.9%
CO[C@H]1C[C@@H]2CC[C@@H](C)[C@@](O)(O2)C(=O)C(=O)N2CCCC[C@H]2C(=O)O[C@H]([C@H](C)C[C@@H]2CC[C@@H](OCCO)[C@H](OC)C2)CC(=O)[C@H](C)/C=C(/C)[C@@H](O)[C@@H](OC)C(=O)[C@H](C)C[C@H](C)\C=C/C=C\C=C/1C [Everolimus]	-57.4%
CC(=O)N[C@H]1CSSC[C@@H](C(N)=O)NC(=O)[C@H](C(C)C)NC(=O)[C@H](C)NC(=O)[C@H](Cc2cnc[nH]2)NC1=O [Exherin]	-8%
CCOC(=O)[C@@H](N)CCC(=O)N[C@@H](CSCc1ccccc1)C(=O)N[C@@H](C(=O)OCC)c1ccccc1 [Ezatiostat]	-18.5%
O=C1[C@H](CC[C@H](O)c2ccc(F)cc2)[C@@H](c2ccc(O)cc2)N1c1ccc(F)cc1 [Ezetimibe]	-48.2%
CC[S+](=O)([O-])c1ccc2oc(-c3ccc4ccccc4c3)nc2c1 [Ezutromid]	-24.2%
CCC(=O)N[C@H]1CC[C@H](C(=O)N(C)c2ccc(-c3nc4ccccc4o3)cc2)C1 [FASN BI]	-31.4%
COC1=CC=CC=C1C2=CC=CC(=C2)C/3=C(O)/C4=CC(=C(Cl)C=C4NC3=O)C#N [FASN MRK]	-12.8%
O=C(O)CNC(=O)c1nc(Cl)c2ccccc2c1O [FG-2216]	-7.52%
CC1(C)O[C@@H]2C[C@H]3[C@@H]4C[C@H](F)\C5=C\C(=O)\C=C/[C@]5(C)[C@H]4[C@@H](O)C[C@]3(C)[C@@]2(O1)C(=O)CO [FLUNISOLIDE]	-18.4%
